Measurements as given in patent US6310090A, “Process and product for enhancing immune response in companion animals using a combination of antioxidants” (priority 2000, dated 2001).
Each block holds one molecule with its values, some of them ahead of it.

How the values were obtained:
mouse splenocytes = details: cited from earlier work
[1] = test system: chemical-induced carcinogenesis; details: mice; cited from earlier work
lymphocyte [2] = details: rats; cited from earlier work
blood lymphocytes = test system: blood lymphocytes; set-up: species or system dog (Beagle); details: dog, in vivo
Protocol: (§1) Female Beagle dogs (18 to 19 months of age; 7 to 9 kg body weight) were fed a basal diet (The lams Co., Lewisburg, OH) which met or exceeded the requirement for all essential nutrients. Animals were housed indoors in light- (14 hr light; 10 hr dark) and temperature-controlled rooms. A test was conducted to study the uptake profile of β-carotene after a single oral dose of β-carotene.
(§2) Blood plasma was separated by centrifugation and β-carotene concentrations were analyzed using high performance liquid chromatography (HPLC) as follows. All procedures were conducted under dim light. Duplicate aliquots of plasma, each leukocyte homogenate, and each leukocyte subcellular fraction were extracted with a 1:1 mixture of diethyl ether and petroleum ether in the presence of BHT. The ether phase was removed and dried under a stream of nitrogen. The residue was reconstituted in mobile phase for the HPLC determination of β-carotene. Samples (50 μl) were injected onto a 5 μm spherical C-18 reverse-phase column (3.9×150 mm; Resolve) and eluted with a 47:47:6 (v/v/v) mixture of acetonitrile, methanol, and chloroform at a flow rate of 1.0 ml/min.
(§3) A third study was designed to study the uptake of β-carotene in dogs by blood lymphocytes. The dogs (n=8/treatment) were fed 0, 50 or 100 mg of β-carotene daily for 30 days. Blood was sampled from all dogs via the jugular vein on days 10, 20 and 30. Blood lymphocytes and neutrophils were separated by density gradient centrifugation. Cell numbers were enumerated. Lymphocytes and neutrophils were resuspended in PBS containing 3% sodium ascorbate as an antioxidant. An aliquot of the cell suspension was sonicated for 30 seconds to disrupt the cells. The leukocyte homogenates were extracted for HPLC analysis of β-carotene.
(§4) On day 30, a larger aliquot of blood was taken and leukocyte suspensions prepared as described above for subsequent subcellular fractionation. Cells were disrupted by sonication for 20 seconds in 5 volumes of 0.25 M sucrose. Sodium ascorbate was added as the antioxidant. The homogenate was centrifuged (600×g for 10 min at 4° C.) and the nuclear pellet separated from the supernatant. The postnuclear supernatant was centrifuged (17,300×g for 20 min at 4° C.) to separate the mitochondrial fraction. The postmitochondrial supernatant was centrifuged (102,000×g for 60 min at 4° C.) to separate the microsomal from the cytosolic fraction. Each subcellular fraction was analyzed for β-carotene content by HPLC.

[3] = assay type: in vivo, dog (Beagle)
Protocol: (§5) In a fourth study, female Beagles (4 to 5 mo old) were supplemented daily with 0, 25, 50 or 100 mg of β-carotene to study the role of dietary β-carotene in enhancing the cell-mediated and humoral immune systems of the dog. The following parameters were assessed in all the animals or in the peripheral blood lymphocytes: (1) delayed-type hypersensitivity (DTH) against PHA (nonspecific immunity) and vaccine (specific immunity), (2) lymphocyte proliferation, (3) lymphocyte populations and (4) immunoglobulins (Ig).

immunoglobulins (Ig) = test: immunoglobulins / antibody levels in the blood, β-carotene feeding; assay type: in vivo, dog (Beagle)
Protocol: FIG. 1 is a graph of antibody concentration in dogs (mg/dl) versus mg/kg diet of beta-carotene; and
(§6) The following parameters were assessed in all the animals or in the peripheral blood lymphocytes: (1) delayed-type hypersensitivity (DTH) against PHA (nonspecific immunity) and vaccine (specific immunity), (2) lymphocyte proliferation, (3) lymphocyte populations and (4) immunoglobulins (Ig).

IL-2 = IL-2 production, β-carotene feeding; assay type: cell-based, dog (Beagle)
[4] = test system: vaccine (specific immunity); test: delayed-type hypersensitivity (DTH) against vaccine, β-carotene feeding; assay type: in vivo, dog (Beagle); details: 20 or 50 mg of β-carotene
Protocol: as §6

[5] = uptake of β-carotene by blood neutrophils and their subcellular fractions; assay type: in vivo, dog (Beagle); details: dog, blood neutrophils, po; 50 or 100 mg daily; read-out: time of maximal uptake by blood neutrophils
Protocol: as §1, §2, §3, §4

blood neutrophils = test: as above; assay type: in vivo, dog (Beagle); details: dog, in vivo
Protocol: as §1, §2, §3, §4

[6] = test system: PHA (nonspecific immunity); test: delayed-type hypersensitivity (DTH) against PHA, β-carotene feeding; assay type: in vivo, dog (Beagle); details: 50 mg of β-carotene
Protocol: as §5

[7] = uptake profile of plasma β-carotene after a single oral dose; set-up: species or system dog (Beagle); details: dog, in vivo
Protocol: as §1
To study the uptake of oral β-carotene in dogs given a single dose of β-carotene orally, dogs (n=6/treatment) were given once perorally 0, 50, 100 or 200 mg of β-carotene (10% cold water dissolvable; BASF Corp., Ludwigshafen, Germany). The appropriate dose of β-carotene was dissolved in 5 ml of water fed orally by using a feeding syringe. In order to establish appropriate sampling times, two dogs were used in a preliminary study. These dogs were fed once with 50 mg β-carotene and blood sampled at 0 (immediately prior to β-carotene feeding), 3, 6, 9, 12, 15, 18, 21 and 24 hr.
as §2

[8] = plasma β-carotene on daily feeding for 7 consecutive days; set-up: species or system dog (Beagle); details: dog, in vivo
Protocol: as §1, §2
In a second study, the dogs (n=6/treatment) were fed daily at 0800 hr for 7 consecutive days with 0, 12.5, 25, 50 or 100 mg β-carotene. […] Plasma was isolated and analyzed for concentrations of β-carotene.

CD8 cells = test: lymphocyte populations, β-carotene feeding; assay type: in vivo, dog (Beagle); details: 20 mg, weeks 2 and 4
Protocol: as §6

CD4+ cells = test: lymphocyte populations, β-carotene feeding; assay type: in vivo, dog (Beagle); details: 20 or 50 mg, week 8, compared to controls
Protocol: as §6

immune system = test: summary of the results from each of the studies (Table 1); assay type: in vivo, dog
lymphocyte [9] = test: mitogen-induced lymphocyte blastogenesis, β-carotene feeding; assay type: cell-based, dog (Beagle)
Protocol: as §5

IgG = test: immunoglobulins, β-carotene feeding; assay type: in vivo, dog (Beagle); details: as early as 1 week after supplementation
Protocol: as §5

IgM = test: immunoglobulins, β-carotene feeding; assay type: in vivo, dog (Beagle); details: as early as 1 week after supplementation
Protocol: as §5

cancer = details: supplementation alone, compared with diets high in antioxidants; cited from earlier work
lymphocyte [10] = test: lymphocyte mitogenic response to ConA and PHA, vitamin E diets; assay type: cell-based, dog (Beagle); details: 8 weeks
Excerpt: Twenty young (mean age 2 years) and 20 old (mean age 9.2 years) Beagles were fed a standard commercial chicken/corn-based diet formulated to contain 27 IU/kg diet of vitamin E (NRC recommendation) (control diet) for 1 month prior to the commencement of the experiment in order to stabilize the dogs' vitamin E levels. Young and old dogs were then randomly assigned to the diets containing 27 IU/kg diet of vitamin E or 280 IU/kg diet of vitamin E for 8 weeks. Blood was collected before and after 8 weeks of dietary treatments for measurement of plasma vitamin E levels and assessment of lymphocyte mitogenic response to ConA (concanavalin A) and PHA (phytohemagglutinin).

[11] = daily β-carotene supplementation

Molecule: CC1=C(/C=C/C(C)=C/C=C/C(C)=C/C=C/C=C(C)/C=C/C=C(C)/C=C/C2=C(C)C(=O)[C@@H](O)CC2(C)C)C(C)(C)C[C@H](O)C1=O [Astaxanthin, astaxanthin]
ex vivo antibody response of mouse splenocytes to T-dependent antigens (mouse splenocytes): increase ex vivo antibody response

Molecule: CC1=C(/C=C/C(C)=C/C=C/C(C)=C/C=C/C=C(C)/C=C/C=C(C)/C=C/C2=C(C)C(=O)CCC2(C)C)C(C)(C)CCC1=O [canthaxanthin]
chemical-induced carcinogenesis [1]: prevent chemical-induced carcinogenesis in mice
lymphocyte proliferation (lymphocyte [2]): increase lymphocyte proliferation in rats

share of total β-carotene in lymphocytes, cytosol (blood lymphocytes): 52-62%
share of total β-carotene in lymphocytes, microsomes (blood lymphocytes): 16-23%
share of total β-carotene in lymphocytes, mitochondria (blood lymphocytes): 14-17%
share of total β-carotene in lymphocytes, nuclei (blood lymphocytes): 6-8%
β-carotene concentrations in lymphocytes, 50 versus 100 mg (blood lymphocytes): no significant treatment difference
Tmax [5]: ≤ 240 h
dose effect on uptake by blood neutrophils (blood neutrophils): No significant dose effect was observed
β-carotene in the cytosolic fraction of blood neutrophils (blood neutrophils): 61-68
β-carotene in the nuclei of blood neutrophils (blood neutrophils): not detected
concentration of β-carotene in plasma of dogs, lower than in cats [7]: 10-16 fold
peak concentrations of blood β-carotene, dogs versus cats ([7]; po): occurred earlier in dogs than in cats
Tmax ([7]; po, preliminary study, two dogs, 50 mg once orally, plasma, read-out: time of peak concentrations of β-carotene): 3 to 6 h
plasma β-carotene after the last dose, higher than after the first dose [8]: 2.5-4 fold
Molecule: CC1=C(/C=C/C(C)=C/C=C/C(C)=C/C=C/C=C(C)/C=C/C=C(C)/C=C/C2=C(C)CCCC2(C)C)C(C)(C)CCC1 [β-carotene]
plasma retinol [3, 11]: did not influence
plasma α-tocopherol [3, 11]: did not influence
plasma β-carotene concentrations ([3]; dog, in vivo): increased plasma β-carotene concentrations in a dose-dependent manner
increases in Ig (immunoglobulins (Ig); 0 to 20 mg of β-carotene): dose dependent
antibody response for both Ig (immunoglobulins (Ig); 20 mg of β-carotene): consistently had the greatest antibody response
increase in antibody levels in the blood (immunoglobulins (Ig); FIG. 1, addition of β-carotene to the diet): 20%
increases in Ig (immunoglobulins (Ig); highest level, 50 mg): did not produce a further increase
IL-2 production (IL-2): did not influence
DTH response to the vaccine [4]: significantly higher DTH response
ex vivo antibody response of mouse splenocytes to T-dependent antigens (mouse splenocytes): increase ex vivo antibody response
DTH response to PHA challenge [6]: greatest response
population of CD8 cells (CD8 cells): elevated population of CD8 cells
population of CD4+ cells (CD4+ cells): elevated population of CD4+ cells
Increase antibody levels in the blood (immune system; Table 1): .check mark.
Optimize types of cells present in the blood (immune system; Table 1): .check mark.
Optimize vaccine recognition by the dog (immune system; Table 1): .check mark.
mitogen-induced lymphocyte blastogenesis (lymphocyte [9]): did not influence
concentration of IgG (IgG): increased significantly
concentration of total IgG (IgG; total IgG): increased significantly
concentration of IgM (IgM): increased significantly
magnitude of protection (cancer): do not provide the same magnitude of protection

Molecule: vitamin E
Optimize immune cell activity (T-cells) (immune system; Table 1, Vitamin E column): .check mark.
magnitude of protection (cancer): do not provide the same magnitude of protection
ConA and PHA-stimulated proliferation (lymphocyte [10]; dogs supplemented with 280 IU/kg diet): No such decrease was observed
mitogen-stimulated lymphocyte proliferation (lymphocyte [10]; old dogs, 27 or 280 IU/kg diet): did not show a significant change
ConA and PHA-stimulated proliferation (lymphocyte [10]; young dogs, 27 IU/kg diet): significant decrease
